The subject of assay [1] is H520 cells. Description: cAMP accumulation in H520 cells. Conditions: Homo sapiens. The class given is cell-based. The source says:
(§1) Fig. 7 Lung squamous cell carcinoma and adenocarcinoma cells display increasing sensitivity to compounds 1, 3–5 in terms of proliferation, dependent upon combined A2AR and PDE10A expression. […] Data represented as a percentage of the cell number present after treatment with 1 % DMSO, ± SEM of 4–8 replicates. (B) Correlation plot for pEC50 of each compounds ability to stimulate cAMP production vs. its pIC50 for inhibiting proliferation. Data represented ± SEM. (C) Proliferation factor (pIC50 x span anti-proliferative Additional file 1: Table S5) calculated for 1, 3–6, CGS21680s and forskolin at LK-2, H520, H1792 and H1563 cells. Bars represent the mean Imax ± SEM, whilst individual data points are shown as a scatter plot.

The next assay deals with T1, A3R (Homo sapiens, UniProt P0DMS8).
T1 construct: expressed in transfected cells
T1 sequence (P0DMS8 1-318): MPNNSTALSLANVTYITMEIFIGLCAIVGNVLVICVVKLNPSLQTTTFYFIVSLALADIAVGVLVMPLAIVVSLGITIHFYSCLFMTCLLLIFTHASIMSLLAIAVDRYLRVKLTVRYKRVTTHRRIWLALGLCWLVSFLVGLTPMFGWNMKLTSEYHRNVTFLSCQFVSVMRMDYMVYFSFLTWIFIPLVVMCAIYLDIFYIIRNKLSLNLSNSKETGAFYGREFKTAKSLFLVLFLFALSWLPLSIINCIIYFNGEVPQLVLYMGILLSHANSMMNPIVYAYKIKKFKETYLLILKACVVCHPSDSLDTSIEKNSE
Description: cAMP inhibition in CHO-K1-A3R cells co-stimulated with forskolin. The class given is cell-based.

In assay [2] the test system is H1792 cells. Nature of the assay: cAMP accumulation in H1792 cells. The class given is cell-based. The settings on record: Homo sapiens.
Text: as §1

For assay [3], the system named is H1563 cells. Nature of the assay: cAMP accumulation in H1563 cells. Format: cell-based. Conditions: Homo sapiens.
Text: as §1
In general terms: Changes in cAMP serve as a functional read-out for many G protein-coupled receptors.

Assay [4] relates to LK-2 cells. Description: cAMP accumulation in LK-2 cells. The class given is cell-based. Conditions: Homo sapiens.
Text: as §1

Assay [5] has as its system H1563 cells. Description: Proliferation assay (CCK-8) in H1563 cells. The class given is cell-based, human. The settings on record: for Imax anti-proliferative effect: H1563, 10 μM agonist relative to 1% DMSO treatment; for IC50: Homo sapiens, NCI-H1563, H1563, 72 hours, read-out: pIC50 anti-proliferative effect (converted). On the procedure: (§2) To test the effect of compounds 1–6 upon proliferation, various cell types were seeded onto clear 96-well plates at proper densities for each; CHO-K1 (2000 cells well^− 1), CHO-K1-A2AR (2000 cells well^− 1), H520 (2500 cells well^− 1), H1563 (2500 cells well^− 1), H1792 (2500 cells well^− 1), LK-2 (2500 cells well^− 1). This was done in suitable media, and they were cultured for 24 hours. After the subsequent addition of compounds 1–6 (ranging 316 nM − 100 µM), cells were allowed to grow further for 72 hours. Quantification of changes in cell number was done by adding 5 µl CCK-8 reagent to each well, accompanied by incubation at 37 °C for 1–3 hours. The determination of OD450 was done using a Mithras LB940 micro-plate reader at 450 nm.
(§3) Data analysis was performed using GraphPad Prism 8.2.1 (San Diegeo, CA). […] As for proliferation assays, the normalization of all data was done relative to the responses obtained upon treating cells with 1 % (v/v) DMSO. Subsequently, a three-parameter logistic equation was used for fitting each set of normalized data β-galactosidase or cAMP data, in order to calculate pEC50/pIC50 and Emax values. Also, the fitting of the proliferation data was done using a three-parameter logistic equation constraining the basal value to 100 and the system maximum to the IMax value obtained for compound 2, since it elicited the maximum inhibition of cellular proliferation in all cell types tested. A one-way ANOVA with Dunnett’s post-test, or Student’s t-test was used to assess the statistical significance for all assays, where p < 0.05 was considered to be significant.

Assay [6] concerns H520 cells. Description: Proliferation assay (CCK-8) in H520 cells. The class given is cell-based, human. Conditions: for Imax anti-proliferative effect: H520, 10 μM agonist relative to 1% DMSO treatment; for IC50: Homo sapiens, NCI-H520, H520, 72 hours, read-out: pIC50 anti-proliferative effect (converted). The method, then:
as §2, §3

For the next assay, the system named is CHO-K1 cells. Description: Proliferation assay (CCK-8) in CHO-K1 cells. Format: cell-based. Conditions: for IC50: Cricetulus griseus, CHO-K1, 72 hours, read-out: pIC50 anti-proliferative effect (converted). The method, then:
as §2, §3

In assay [7] the test system is LK-2 cells. Description: Proliferation assay (CCK-8) in LK-2 cells. Conditions: for IC50: Homo sapiens, LK-2, 72 hours, read-out: pIC50 anti-proliferative effect (converted). The class given is cell-based, human. The method, then: as §2, §3
In a further assay the target is T2, PDE10A (Homo sapiens, UniProt Q9Y233).
T2 construct: purchased BPS Bioscience, San Diego, CA
T2 sequence (Q9Y233 1-779 isoform Q9Y233-1): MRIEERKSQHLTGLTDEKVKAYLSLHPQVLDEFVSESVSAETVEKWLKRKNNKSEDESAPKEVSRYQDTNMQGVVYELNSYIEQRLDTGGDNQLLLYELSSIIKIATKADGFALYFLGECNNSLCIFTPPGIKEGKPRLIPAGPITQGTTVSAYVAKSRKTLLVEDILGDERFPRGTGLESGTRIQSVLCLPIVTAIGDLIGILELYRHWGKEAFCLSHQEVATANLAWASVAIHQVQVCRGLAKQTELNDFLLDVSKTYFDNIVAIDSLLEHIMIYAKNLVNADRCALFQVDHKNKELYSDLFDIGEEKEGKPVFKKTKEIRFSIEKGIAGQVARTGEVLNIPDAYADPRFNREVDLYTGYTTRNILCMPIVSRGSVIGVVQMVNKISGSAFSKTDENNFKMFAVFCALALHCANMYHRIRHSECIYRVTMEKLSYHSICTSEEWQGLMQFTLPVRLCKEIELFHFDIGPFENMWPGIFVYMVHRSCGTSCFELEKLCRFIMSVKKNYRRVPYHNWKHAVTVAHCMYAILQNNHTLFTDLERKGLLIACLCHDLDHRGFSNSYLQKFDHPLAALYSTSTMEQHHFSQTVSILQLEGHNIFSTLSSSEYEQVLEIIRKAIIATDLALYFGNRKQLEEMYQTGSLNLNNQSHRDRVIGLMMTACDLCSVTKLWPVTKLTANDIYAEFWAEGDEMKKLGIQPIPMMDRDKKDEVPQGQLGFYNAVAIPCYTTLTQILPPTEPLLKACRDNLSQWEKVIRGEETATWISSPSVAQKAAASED
Nature of the assay: PDE10A inhibition assay (BPS Bioscience PDE10A assay kit). The class given is biochemical. The settings on record: concentration-response at PDE10A. The source says: 400 pg of purified PDE10A was used per reaction, and the plates were read using a TECAN infinite M200.

The test system of a further assay is CHO-K1-A2AR cells. Nature of the assay: Proliferation assay (CCK-8) in CHO-K1-A2AR cells. Format: cell-based. Conditions: for IC50: read-out: pIC50 anti-proliferative effect (converted). On the procedure:
as §2, §3

Assay [8] deals with H1792 cells. Nature of the assay: Proliferation assay (CCK-8) in H1792 cells. The class given is cell-based, human. The settings on record: for Imax anti-proliferative effect: H1792, 10 μM agonist relative to 1% DMSO treatment; for IC50: Homo sapiens, NCI-H1792, H1792, 72 hours, read-out: pIC50 anti-proliferative effect (converted). The method, then: as §2, §3
In the next assay the test system is A2AR. On the set-up: method as in ChEMBL. The settings on record: confidence score equal to 9; ref ChEMBL; read-out: IC50 (A2AR antagonist); cited from earlier work.
The target of another assay is T3, Nluc-A2AR (Homo sapiens, UniProt P29274).
T3 construct: expressed in transfected cells; host or cells: HEK293T
T3 sequence (P29274 whole entry): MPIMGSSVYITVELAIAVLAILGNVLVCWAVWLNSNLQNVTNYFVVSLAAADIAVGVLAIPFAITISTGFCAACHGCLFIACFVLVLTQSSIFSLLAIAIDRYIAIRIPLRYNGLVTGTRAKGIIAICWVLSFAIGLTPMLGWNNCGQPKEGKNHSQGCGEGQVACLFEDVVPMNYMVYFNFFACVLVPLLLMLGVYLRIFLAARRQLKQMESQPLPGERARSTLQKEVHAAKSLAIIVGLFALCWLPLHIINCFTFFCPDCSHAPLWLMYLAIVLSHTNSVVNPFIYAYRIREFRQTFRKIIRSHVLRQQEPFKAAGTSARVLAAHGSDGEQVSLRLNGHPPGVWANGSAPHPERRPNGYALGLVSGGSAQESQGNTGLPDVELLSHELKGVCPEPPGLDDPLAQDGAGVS
Description: NanoBRET ligand binding assay, competition with CA200645 in HEK293T cells. (In general: Bioluminescence resonance energy transfer reports proximity on the nanometre scale.)

These results are taken from paper PMC7927403, “Structure‐based identification of dual ligands at the A2AR and PDE10A with anti‐proliferative effects in lung cancer cell‐lines” (Journal of Cheminformatics, 2021).

Description for Nluc-A2AR: We sought to validate the docking studies by quantifying the affinity of each compound at the A2AR using a NanoBRET binding assay. In this experiment, we used N-terminally tagged A2AR with Nanoluciferase (Nluc) that will emit bioluminescence in close proximity with the fluorescent probe, CA200645, in the presence of Nluc substrate. Firstly, we determine the affinity constant of CA200645 in our expression system. […] We next extended our studies to use a classical competition binding assay ([43, 44]) where non-fluorescent ligands compete for binding at the Nluc-A2AR with CA200645. […] HEK293T cells were seeded in 6-well plates at density of 10^6 cells/well and grown overnight at 37 °C in DMEM/F12 medium supplemented with 10 % FBS and 1 % antibiotic/antimycotic. […]
For association-dissociation kinetic experiments, following furimazine incubation, 40 nM of CA200645 (purchased from Hello Bio, Bristol, UK) was added and the plate was immediately read. […] BRET signal was recorded for either 50 minutes or 20 minutes, for kinetic experiments or competition assay as appropriate, on a Mithras LB940 plate reader allowing sequential integration of signal detected from fluorescent probe CA200645 and Nluc. […] Ligand-induced ΔBRET was used to construct the association-dissociation kinetic of the fluorescence probe and competition binding curve of unlabelled ligands. […]

Usually Emax stands for the maximal effect, on the per cent scale that the assay sets. Regarding `CCNC(=O)[C@H]1O[C@@H](n2cnc3c(N)nc(NCCc4ccc(CCC(=O)O)cc4)nc32)[C@H](O)[C@@H]1O` [CGS21680], the EC50 in the assay on H520 cells [1] (NCI-H520, 0.5 h, H520, 30 minutes, read-out: pEC50 cAMP accumulation (converted)) was 3.31 µM; with H1792 cells [2] (NCI-H1792, 0.5 h, H1792, 30 minutes, read-out: pEC50 cAMP accumulation (converted)), 3.02 µM; in the assay on H1563 cells [3] (NCI-H1563, 0.5 h, H1563, 30 minutes, read-out: pEC50 cAMP accumulation (converted)), 4.57 µM; with LK-2 cells [4] (0.5 h, LK-2, 30 minutes, read-out: pEC50 cAMP accumulation (converted)), 14.5 µM. Further, the Emax with H520 cells [1] (NCI-H520, H520, percentage of 100 μM forskolin) came out at 20.8 ± 1%; in the assay on H1792 cells [2] (NCI-H1792, H1792, percentage of 100 μM forskolin) it was 27.3 ± 2.1%; with H1563 cells [3] (NCI-H1563, H1563, percentage of 100 μM forskolin), 15.6 ± 1.6%; in the assay with LK-2 cells [4] (LK-2, percentage of 100 μM forskolin), 7.64 ± 1.6%. Moreover, the “A3R functional activity” value at A3R is “agonist activity”. The Imax anti-proliferative effect with H1563 cells [5] is recorded as 18.87±1.8 %; with H520 cells [6] it was 0.55±2.0 %; in the assay on LK-2 cells [7] (LK-2, 10 μM agonist relative to 1% DMSO treatment), -3.55±2.6%; with H1792 cells [8], -4.07±1.6 %. The IC50 with H1563 cells [5] is 214 µM; in the assay on H520 cells [6], over 100 µM; with CHO-K1 cells, over 100 µM; in the assay on LK-2 cells [7] it was over 100 µM; with CHO-K1-A2AR cells (CHO-K1-A2AR, 72 hours) it was over 100 µM; with H1792 cells [8], over 100 µM. The “activity at PDE10A” value on PDE10A is recorded as “no significant activity”. In the assay with CHO-K1-A2AR cells (CHO-K1 and CHO-K1-A2AR cells, 72 hours, CCK-8), the “anti-proliferative effect” value is reported as “no anti-proliferative effects”.

For `COc1ccccc1Cn1cc2nc(-c3ccc(C)o3)nc(N)c2n1` [CHEMBL3799351], the IC50 with A2AR was 0.00435 µM.

For the compound `C=C[C@@]1(C)CC(=O)[C@]2(O)[C@@]3(C)[C@@H](O)CCC(C)(C)[C@@H]3[C@H](O)[C@H](OC(C)=O)[C@@]2(C)O1` [Forskolin], the Imax anti-proliferative effect in the assay with H1563 cells [5] is 29.9±1.1 %; in the assay with H520 cells [6], 31.2±2.1 %; in the assay with CHO-K1 cells (CHO-K1, 10 μM agonist relative to 1% DMSO treatment), 62.57±3.4; in the assay with CHO-K1-A2AR cells (CHO-K1-A2AR, 10 μM agonist relative to 1% DMSO treatment) it was 58.96±2.2; in the assay on H1792 cells [8], 25.9±1.0 %. The IC50 in the assay on H1563 cells [5] was 148 µM; in the assay with H520 cells [6], 85.1 µM; in the assay on CHO-K1 cells, 34.7 µM; with LK-2 cells [7] it was 324 µM; in the assay with CHO-K1-A2AR cells (CHO-K1-A2AR, 72 hours), 37.2 µM; in the assay with H1792 cells [8], 186 µM. The “Δ Imax” value with CHO-K1-A2AR cells (Imax (CHO-K1-A2AR) - Imax (CHO-K1)) is -3.61±4.1. For the same compound, the “Δ pIC50” value in the assay on CHO-K1-A2AR cells (pIC50(CHO-K1-A2AR) - pIC50(CHO-K1)) was -0.03±0.1.

Regarding `CC(C)NCC(O)c1ccc(O)c(O)c1` (stereo not shown) [isoprenaline], the “displacement of CA200645” value on Nluc-A2AR (competition with 300 nM CA200645) is recorded as “failed to displace CA200645”.

CA200645: the “disassociation constant (KD) of CA200645 at the Nluc-A2AR” value on Nluc-A2AR (kinetic association then dissociation, 40 nM CA200645, HEK293 cells) was found to be 0.065 µM.
